Reference: patent US9890142B2, “PDE4 inhibitor” (Meiji Seika Pharma Co., Ltd., priority 2013, dated 2018)

The compounds below were run on PDE4 (assay: Evaluation of PDE4 inhibition (scintillation proximity assay)). Conditions: inhibition rate relative to control, test compound at 1 μM.
Format: biochemical
Experimental: Test Example 1 Evaluation of PDE4 Inhibition
The PDE4 inhibitory activity was measured by using scintillation proximity assay (SPA) as follows: one in which a sample compound dissolved in dimethyl sulfoxide was diluted 10-fold with a buffer solution for reaction containing 50 mM Tris-HCl, pH 7.5, 8.3 mM MgCl2, 1.7 mM EDTA and 0.3 mg/mL bovine serum albumin (BSA) was added at 10 μL/well to a 96-well assay plate. Further, PDE4 diluted 750-fold with a buffer solution for reaction was added at 50 μL/well, then [2,8-^3H]-Adenosine-3′,5′-cyclic phosphate triethylammonium salt diluted 1000-fold with a buffer solution for reaction was added at 40 μL/well, and the plate was left standing at room temperature for 120 minutes. Thereafter, a suspension of RNA binding YSi-SPA Beads containing 200 mM ZnSO4 was added at 50 μL/well, and the plate was left standing at room temperature for 15 minutes to adsorb the enzyme reaction product onto the Beads. Thereafter, the radioactivity was measured with a liquid scintillation counter for 96-well plates. When one supplemented with only a buffer solution for reaction without adding the enzyme preparation was used as a blank and one supplemented with the enzyme preparation but supplemented with only dimethyl sulfoxide instead of the sample solution was used as a control, the inhibition rate of the test compound relative to the control was calculated according to the following calculation expression: Inhibition rate (%)={1−(Numeric value from the addition of each sample−Blank value)/(Control value−Blank value)}×100

Row | Structure (SMILES) | PDE4 inhibitory activity (1 μM (%))
1 | C[C@H]1CNCCN1c1nc2cc(Cl)cc(C3CCCO3)c2o1 (mixture of isomers) [Example 80, 5-Chloro-2-((S)-2-methylpiperazin-1-yl)-7-(tetrahydrofuran-2-yl)benzoxazole] | 42%
2 | CC(C)c1cc(Cl)cc2nc(N3CCNC[C@@H]3C)oc12 [Example 1, (S)-5-Chloro-7-isopropyl-2-(2-methylpiperazin-1-yl)benzoxazole] | 87%
3 | COc1cc(Cl)cc2nc(N3CCNC[C@@H]3C)oc12 [Example 2, (S)-5-Chloro-7-methoxy-2-(2-methylpiperazin-1-yl)benzoxazole] | 23%
4 | CC(=O)c1cc(Cl)cc2nc(N3CCNC[C@@H]3C)oc12 [Example 3, (S)-7-Acetyl-5-chloro-2-(2-methylpiperazin-1-yl)benzoxazole] | 50%
5 | Cc1cc(Cl)cc2nc(N3[C@H](C)CNC[C@@H]3C)oc12 [Example 4, meso-5-Chloro-2-(2,6-cis-dimethylpiperazin-1-yl)-7-methylbenzoxazole] | 18%
6 | Cc1cc(F)cc2nc(N3CCNC[C@@H]3C)oc12 [Example 5, (S)-5-Fluoro-7-methyl-2-(2-methylpiperazin-1-yl)benzoxazole] | 25%
7 | Cc1cc(Br)cc2nc(N3CCNC[C@@H]3C)oc12 [Example 6, (S)-5-Bromo-7-methyl-2-(2-methylpiperazin-1-yl)benzoxazole] | 36%
8 | CC(C)Oc1cc(Cl)cc2nc(N3CCNC[C@@H]3C)oc12 [Example 7, (S)-5-Chloro-7-isopropoxy-2-(2-methylpiperazin-1-yl)benzoxazole] | 59%
9 | CCc1cc(Cl)cc2nc(N3CCNC[C@@H]3C)oc12 [Example 8, (S)-5-Chloro-7-ethyl-2-(2-methylpiperazin-1-yl)benzoxazole] | 79%
10 | CCOC(=O)c1cc(Cl)cc2nc(N3CCNC[C@@H]3C)oc12 [Example 9, (S)-5-Chloro-7-ethoxycarbonyl-2-(2-methylpiperazin-1-yl)benzoxazole] | 50%
11 | C[C@H]1CNCCN1c1nc2cc(Cl)cc(C#N)c2o1 [Example 10, (S)-5-Chloro-7-cyano-2-(2-methylpiperazin-1-yl)benzoxazole] | 36%
12 | CCc1cc(Cl)cc2nc(N3CCNC[C@@H]3C(C)C)oc12 [Example 11, (S)-5-Chloro-7-ethyl-2-(2-isopropylpiperazin-1-yl)benzoxazole] | 26%
13 | CCc1cc(Cl)cc2nc(N3CCNC[C@@H]3CC(C)C)oc12 [Example 12, (S)-5-Chloro-7-ethyl-2-(2-isobutylpiperazin-1-yl)benzoxazole] | <10%
14 | CCCC[C@H]1CNCCN1c1nc2cc(Cl)cc(CC)c2o1 [Example 13, (S)-2-(2-n-Butylpiperazin-1-yl)-5-chloro-7-ethylbenzoxazole] | <10%
15 | CCc1cc(Cl)cc2nc(N3CCNC[C@@H]3CC)oc12 [Example 14, (S)-5-Chloro-7-ethyl-2-(2-ethylpiperazin-1-yl)benzoxazole] | 37%
16 | C[C@H]1CNCCN1c1nc2cc(Cl)cc(CO)c2o1 [Example 15, (S)-5-Chloro-7-hydroxymethyl-2-(2-methylpiperazin-1-yl)benzoxazole] | 21%
17 | C[C@H]1CNCCN1c1nc2cc(Cl)cc(-c3ccsc3)c2o1 [Example 16, (S)-5-Chloro-2-(2-methylpiperazin-1-yl)-7-(thiophen-3-yl)benzoxazole] | 75%
18 | C[C@H]1CNCCN1c1nc2cc(Cl)cc(-c3ccoc3)c2o1 [Example 17, (S)-5-Chloro-7-(furan-3-yl)-2-(2-methylpiperazin-1-yl)benzoxazole] | 84%
19 | C[C@H]1CNCCN1c1nc2cc(Cl)cc(-c3cccs3)c2o1 [Example 18, (S)-5-Chloro-2-(2-methylpiperazin-1-yl)-7-(thiophen-2-yl)benzoxazole] | 76%
20 | C[C@H]1CNCCN1c1nc2cc(Cl)cc(-c3ccccc3)c2o1 [Example 19, (S)-5-Chloro-2-(2-methylpiperazin-1-yl)-7-phenylbenzoxazole] | 76%
21 | C[C@H]1CNCCN1c1nc2cc(Cl)cc(N3CCCC3)c2o1 [Example 20, (S)-5-Chloro-2-(2-methylpiperazin-1-yl)-7-(pyrrolidin-1-yl)benzoxazole] | 71%

Row | Structure (SMILES) | PDE4 inhibitory activity (1 μM (%))
22 | C[C@H]1CNCCN1c1nc2cc(Cl)cc(N3CCOCC3)c2o1 [Example 21, (S)-5-Chloro-2-(2-methylpiperazin-1-yl)-7-(morpholin-1-yl)benzoxazole] | 59%
23 | C[C@H]1CNCCN1c1nc2cc(Cl)cc(N3CCCCC3)c2o1 [Example 22, (S)-5-Chloro-2-(2-methylpiperazin-1-yl)-7-(piperidin-1-yl)benzoxazole] | 40%
24 | C[C@H]1CNCCN1c1nc2cc(Cl)cc(-c3ccco3)c2o1 [Example 23, (S)-5-Chloro-7-(furan-2-yl)-2-(2-methylpiperazin-1-yl)benzoxazole] | 95%
25 | C[C@H]1CNCCN1c1nc2cc(Cl)cc(NC3CCCC3)c2o1 [Example 24, (S)-5-Chloro-7-(cyclopentylamino)-2-(2-methylpiperazin-1-yl)benzoxazole] | 27%
26 | CCN(CC)c1cc(Cl)cc2nc(N3CCNC[C@@H]3C)oc12 [Example 25, (S)-5-Chloro-7-diethylamino-2-(2-methylpiperazin-1-yl)benzoxazole] | 53%
27 | C[C@H]1CNCCN1c1nc2cc(Cl)cc(N(C)C)c2o1 [Example 26, (S)-5-Chloro-7-dimethylamino-2-(2-methylpiperazin-1-yl)benzoxazole] | 61%
28 | C[C@H]1CNCCN1c1nc2cc(Cl)cc(C3CC3)c2o1 [Example 27, (S)-5-Chloro-7-cyclopropyl-2-(2-methylpiperazin-1-yl)benzoxazole] | 85%
29 | C[C@H]1CNCCN1c1nc2cc(Cl)cc(OC3CCCC3)c2o1 [Example 28, (S)-5-Chloro-7-(cyclopentyloxy)-2-(2-methylpiperazin-1-yl)benzoxazole] | 81%
30 | CCOc1cc(Cl)cc2nc(N3CCNC[C@@H]3C)oc12 [Example 29, (S)-5-Chloro-7-ethoxy-2-(2-methylpiperazin-1-yl)benzoxazole] | 63%
31 | CCCOc1cc(Cl)cc2nc(N3CCNC[C@@H]3C)oc12 [Example 30, (S)-5-Chloro-2-(2-methylpiperazin-1-yl)-7-n-propoxybenzoxazole] | 61%
32 | C[C@H]1CNCCN1c1nc2cc(Cl)cc(C3CCCC3)c2o1 [Example 31, (S)-5-Chloro-7-cyclopentyl-2-(2-methylpiperazin-1-yl)benzoxazole] | 51%
33 | CCCCc1cc(Cl)cc2nc(N3CCNC[C@@H]3C)oc12 [Example 32, (S)-7-n-Butyl-5-chloro-2-(2-methylpiperazin-1-yl)benzoxazole] | 62%
34 | C[C@H]1CNCCN1c1nc2cc(Cl)cc(-n3cccn3)c2o1 [Example 33, (S)-5-Chloro-2-(2-methylpiperazin-1-yl)-′7-(1H-pyrazol-1-yl)benzoxazole] | 93%
35 | C[C@H]1CNCCN1c1nc2cc(Cl)cc(-c3ncco3)c2o1 [Example 34, (S)-5-Chloro-2-(2-methylpiperazin-1-yl)-7-(oxazol-2-yl)benzoxazole] | 89%
36 | C[C@H]1CNCCN1c1nc2cc(Cl)cc(-c3nccs3)c2o1 [Example 35, (S)-5-Chloro-2-(2-methylpiperazin-1-yl)-7-(thiazol-2-yl)benzoxazole] | 96%
37 | C[C@H]1CNCCN1c1nc2cc(Cl)cc(-n3ccnc3)c2o1 [Example 36, (S)-5-Chloro-7-(1H-imidazol-1-yl)-2-(2-methylpiperazin-1-yl)benzoxazole] | 39%
38 | C[C@H]1CNCCN1c1nc2cc(Cl)cc(-c3cscn3)c2o1 [Example 37, (S)-5-Chloro-2-(2-methylpiperazin-1-yl)-7-(thiazol-4-yl)benzoxazole] | 98%
39 | C[C@H]1CNCCN1c1nc2cc(Cl)cc(-c3cncs3)c2o1 [Example 38, (S)-5-Chloro-2-(2-methylpiperazin-1-yl)-7-(thiazol-5-yl)benzoxazole] | 68%
40 | Cc1ccc(-c2cc(Cl)cc3nc(N4CCNC[C@@H]4C)oc23)o1 [Example 39, (S)-5-Chloro-7-(5-methylfuran-2-yl)-2-(2-methylpiperazin-1-yl)benzoxazole] | 42%
41 | Cc1cnn(-c2cc(Cl)cc3nc(N4CCNC[C@@H]4C)oc23)c1 [Example 40, (S)-5-Chloro-7-(4-methyl-1H-pyrazol-1-yl)-2-(2-methylpiperazin-1-yl)benzoxazole] | 68%
42 | C[C@H]1CNCCN1c1nc2cc(Cl)cc(-c3ccccn3)c2o1 [Example 41, (S)-5-Chloro-2-(2-methylpiperazin-1-yl)-7-(pyridin-2-yl)benzoxazole] | 93%
